Test results reported in article PMC11995724, “Antibiotic target discovery by integrated phenotypic and activity-based profiling of electrophilic fragments” (Cell chemical biology, 2025).
Counter-ions that a name gives are not always drawn.

assay: in vitro; settings: human, hek293t cells
Protocol: Mammalian cytotoxicity measurement was performed using Cell Titer-Glo 2.0 Cell Viability Assay (Promega, G9243) according to the manufacturer protocol. In brief, mammalian cells were seeded into 384-well white plates (Greiner, 781080) and incubated at 37°C for one day. Compounds from the Cys-Library were dispensed into the assay plate using epMotion 96. The plates were then incubated at 37°C for two days. An equal volume of Cell Titer-Glo 2.0 reagent was added into each well of the assay plate using epMotion 96 and incubated at 22°C for 10 min, followed by luminescence measurement using a Cytation 5 plate reader (BioTek).

In order of falling viability at 48 h, 25 µM:
1. CC(Cl)C(=O)NC(=O)NCc1ccccc1 (centres unmarked) [6-P06, 1-benzyl-3-(2-chloropropanoyl)urea]  123%
2. C[C@@H](NC(=O)CCl)c1ccccc1 [6-O20, 2-chloro-N-[(1R)-1-phenylethyl]acetamide]  121%
3. CC(Cl)C(=O)NC(C)C(c1ccccc1Cl)n1cccn1 (centres unmarked) [6-P09, 2-chloro-N-[1-(2-chlorophenyl)-1-(1H-pyrazol-1-yl)propan-2-yl]propanamide]  119%
4. O=C(CCl)Nc1cccnn1 [6-O17, 2-chloro-N-(pyridazin-3-yl)acetamide hydrochloride]  118%
5. CC(Cl)C(=O)NCc1cccc(Cn2cnc3ccccc32)c1 (centres unmarked) [6-O16, N-({3-[(1H-1,3-benzodiazol-1-yl)methyl]phenyl}methyl)-2-chloropropanamide]  116%
6. CC(Cl)C(=O)NCc1cnc(N2CCOCC2)s1 (centres unmarked) [6-P05, 2-chloro-N-{[2-(morpholin-4-yl)-1,3-thiazol-5-yl]methyl}propanamide]  116%
7. CC(Cl)C(=O)NC(C)c1nc(-c2cccnc2)cs1 (centres unmarked) [6-P07, 2-chloro-N-{1-[4-(pyridin-3-yl)-1,3-thiazol-2-yl]ethyl}propanamide]  115%
8. CC(Cl)C(=O)NC(C)c1ccns1 (centres unmarked) [6-P12, 2-chloro-N-[1-(1,2-thiazol-5-yl)ethyl]propanamide]  115%
9. Cc1noc(C)c1C(C)CNC(=O)C(C)Cl (centres unmarked) [6-P19, 2-chloro-N-[2-(3,5-dimethyl-1,2-oxazol-4-yl)propyl]propanamide]  115%
10. CC(Cl)C(=O)N(Cc1cnn(C)c1)c1ccc(F)cc1 (centres unmarked) [6-P11, 2-chloro-N-(4-fluorophenyl)-N-[(1-methyl-1H-pyrazol-4-yl)methyl]propanamide]  114%
11. CC(Cl)C(=O)N[C@@H]1CCc2c(C#N)cccc21 (stereo partly drawn) [6-P14, 2-chloro-N-[(1R)-4-cyano-2,3-dihydro-1H-inden-1-yl]propanamide]  114%
12. CC(Cl)C(=O)N1CCN(C(c2ccccc2)C(F)(F)F)CC1 (centres unmarked) [6-P16, 2-chloro-1-[4-(2,2,2-trifluoro-1-phenylethyl)piperazin-1-yl]propan-1-one]  114%
13. COc1ccc(CNC(=O)C(C)Cl)cc1OC (centres unmarked) [6-P10, 2-chloro-N-[(3,4-dimethoxyphenyl)methyl]propanamide]  113%
14. CC(Cl)C(=O)Nc1ccc2c(c1)ncn2CCN(C)C (centres unmarked) [6-P15, 2-chloro-N-{1-[2-(dimethylamino)ethyl]-1H-1,3-benzodiazol-5-yl}propanamide]  113%
15. CC(Cl)C(=O)N1CCN(Cc2cc(=O)n3ccsc3n2)CC1 (centres unmarked) [6-P17, 7-{[4-(2-chloropropanoyl)piperazin-1-yl]methyl}-5H-[1,3]thiazolo[3,2-a]pyrimidin-5-one]  113%
16. CC(Cl)C(=O)NC(C)c1ncn(C)n1 (centres unmarked) [6-P13, 2-chloro-N-[1-(1-methyl-1H-1,2,4-triazol-3-yl)ethyl]propanamide]  112%
17. O=C(CCl)NC1CN(C(=O)C2CC2)C1 [6-P22, 2-chloro-N-(1-cyclopropanecarbonylazetidin-3-yl)acetamide]  112%
18. CC(Cl)C(=O)N1CCNC(=O)C1Cc1nc2ccccc2o1 (centres unmarked) [6-P03, 3-[(1,3-benzoxazol-2-yl)methyl]-4-(2-chloropropanoyl)piperazin-2-one]  110%
19. CC(Cl)C(=O)NC1(c2ccccc2)CCOCC1 (centres unmarked) [7-A11, 2-chloro-N-(4-phenyloxan-4-yl)propanamide]  108%
20. CC(Cl)C(=O)N(C)Cc1cc(Cl)cn1C (centres unmarked) [6-P21, 2-chloro-N-[(4-chloro-1-methyl-1H-pyrrol-2-yl)methyl]-N-methylpropanamide]  103%
21. CC(Cl)C(=O)Nc1ccc(F)c(F)c1 (centres unmarked) [6-P08, 2-chloro-N-(3,4-difluorophenyl)propanamide]  101%
22. COCc1ccc(CNC(=O)CCl)cc1 [6-O22, 2-chloro-N-{[4-(methoxymethyl)phenyl]methyl}acetamide]  99.4%
23. CC(Cl)C(=O)N1CCCCC1c1cnn(C)c1 (centres unmarked) [7-A03, 2-chloro-1-[2-(1-methyl-1H-pyrazol-4-yl)piperidin-1-yl]propan-1-one]  98.8%
24. Cc1nc2cc(=O)[nH]n2c(C)c1CNC(=O)C(C)Cl (centres unmarked) [7-B07, 2-chloro-N-({5,7-dimethyl-2-oxo-1H,2H-pyrazolo[1,5-a]pyrimidin-6-yl}methyl)propanamide]  96.1%
25. CC(Cl)C(=O)N1CCCC(CC(=O)OC(C)(C)C)CC1 (centres unmarked) [6-P18, tert-butyl 2-[1-(2-chloropropanoyl)azepan-4-yl]acetate]  93.9%
26. CC(Cl)C(=O)NCc1nc(N(C)C)no1 (centres unmarked) [7-A04, 2-chloro-N-{[3-(dimethylamino)-1,2,4-oxadiazol-5-yl]methyl}propanamide]  92.2%
27. Cc1ccc(C2OCCCC2CNC(=O)C(C)Cl)cc1 (centres unmarked) [7-B09, 2-chloro-N-{[2-(4-methylphenyl)oxan-3-yl]methyl}propanamide]  91.9%
28. CC(Cl)C(=O)NCc1nnc(C2CCC2)n1C (centres unmarked) [7-A10, 2-chloro-N-[(5-cyclobutyl-4-methyl-4H-1,2,4-triazol-3-yl)methyl]propanamide]  87.1%
29. CC(Cl)C(=O)NCC(C)c1nncn1C (centres unmarked) [7-A07, 2-chloro-N-[2-(4-methyl-4H-1,2,4-triazol-3-yl)propyl]propanamide]  84.8%
30. CC(Cl)C(=O)N1CCN(Cc2ccc3ccccc3n2)CC1 (centres unmarked) [7-A15, 2-chloro-1-{4-[(quinolin-2-yl)methyl]piperazin-1-yl}propan-1-one]  83.2%
31. CC(Cl)C(=O)NCCc1cn(C)nn1 (centres unmarked) [7-A14, 2-chloro-N-[2-(1-methyl-1H-1,2,3-triazol-4-yl)ethyl]propanamide]  82.7%
32. CC(Cl)C(=O)N1CCOCC1c1cccn1C (centres unmarked) [7-A09, 2-chloro-1-[3-(1-methyl-1H-pyrrol-2-yl)morpholin-4-yl]propan-1-one]  82%
33. CC(Cl)C(=O)NCC1(C2CC2)CCC1 (centres unmarked) [7-A06, 2-chloro-N-[(1-cyclopropylcyclobutyl)methyl]propanamide]  81.1%
34. CC(Cl)C(=O)N1CCCC(n2ccc(C(F)(F)F)n2)C1 (centres unmarked) [7-A08, 2-chloro-1-{3-[3-(trifluoromethyl)-1H-pyrazol-1-yl]piperidin-1-yl}propan-1-one]  80.7%
35. Cc1nnnn1CCNC(=O)C(C)Cl (centres unmarked) [7-A19, 2-chloro-N-[2-(5-methyl-1H-1,2,3,4-tetrazol-1-yl)ethyl]propanamide]  79%
36. CC(Cl)C(=O)N1CC(C(=O)N2CCN(C)CC2)Oc2ccccc21 (centres unmarked) [7-A20, 2-chloro-1-[2-(4-methylpiperazine-1-carbonyl)-3,4-dihydro-2H-1,4-benzoxazin-4-yl]propan-1-one]  77.1%
37. CC(Cl)C(=O)NCc1cc(-c2ccccc2)on1 (centres unmarked) [7-A13, 2-chloro-N-[(5-phenyl-1,2-oxazol-3-yl)methyl]propanamide]  74.7%
38. Cc1ccc(N2CCN(C(=O)C(C)Cl)CC2=O)o1 (centres unmarked) [7-A16, 4-(2-chloropropanoyl)-1-(5-methylfuran-2-yl)piperazin-2-one]  74.7%
39. CC(Cl)C(=O)NC1COc2ccc(F)cc21 (centres unmarked) [7-A17, 2-chloro-N-(5-fluoro-2,3-dihydro-1-benzofuran-3-yl)propanamide]  74%
40. Cc1ccc(NC(=O)N2CCN(C(=O)C(C)Cl)CC2)cc1Cl (centres unmarked) [7-A21, N-(3-chloro-4-methylphenyl)-4-(2-chloropropanoyl)piperazine-1-carboxamide]  70.8%
41. CC(Cl)C(=O)N1CCCC1c1cccc(N(C)C)c1 (centres unmarked) [7-A22, 2-chloro-1-{2-[3-(dimethylamino)phenyl]pyrrolidin-1-yl}propan-1-one]  68.7%
42. CC(Cl)C(=O)N1CCC(Oc2ccc(C3CC3)cn2)C1 (centres unmarked) [7-A18, 2-chloro-1-{3-[(5-cyclopropylpyridin-2-yl)oxy]pyrrolidin-1-yl}propan-1-one]  60.4%
43. CC(Cl)C(=O)NCc1nc2c(s1)CC(c1ccccc1)CC2 (centres unmarked) [7-A05, 2-chloro-N-[(6-phenyl-4,5,6,7-tetrahydro-1,3-benzothiazol-2-yl)methyl]propanamide]  57.5%
44. O=C(CCl)NC(c1ccccc1)C1CCCC1 (centres unmarked) [6-O18, 2-chloro-N-[cyclopentyl(phenyl)methyl]acetamide]  8.29%
45. O=C(CCl)NC1CCCS(=O)(=O)c2ccccc21 (centres unmarked) [6-O19, 2-chloro-N-(1,1-dioxo-2,3,4,5-tetrahydro-1lambda6-benzothiepin-5-yl)acetamide]  5.88%
46. CCN(Cc1ccccc1)C(=O)CCl [6-O21, N-benzyl-2-chloro-N-ethylacetamide]  1.53%
47. O=C(CCl)NCC1CCN(C(=O)Cc2ccccc2)C1 (centres unmarked) [7-B08, 2-chloro-N-{[1-(2-phenylacetyl)pyrrolidin-3-yl]methyl}acetamide]  0.975%
48. Cc1nn(-c2ccccc2)c(C)c1CN(C)C(=O)CCl [7-B03, 2-chloro-N-[(3,5-dimethyl-1-phenyl-1H-pyrazol-4-yl)methyl]-N-methylacetamide]  0.804%
49. O=C(CCl)Nc1ccc(S(=O)(=O)c2ccc(F)cc2)cc1 [6-O14, 2-chloro-N-[4-(4-fluorobenzenesulfonyl)phenyl]acetamide]  0.578%
50. O=C(CCl)NCc1nn(-c2ccccc2)c2c1CCC2 [7-B06, 2-chloro-N-({1-phenyl-1H,4H,5H,6H-cyclopenta[c]pyrazol-3-yl}methyl)acetamide]  0.565%
51. O=C(CCl)NC1CCCc2nc(-c3ccccc3)sc21 (centres unmarked) [7-B04, 2-chloro-N-(2-phenyl-4,5,6,7-tetrahydro-1,3-benzothiazol-7-yl)acetamide]  0.382%
52. COc1ccc(C2=NN(C(=O)CCl)C(c3cccc(F)c3)C2)cc1 (centres unmarked) [6-P04, 2-chloro-1-[5-(3-fluorophenyl)-3-(4-methoxyphenyl)-4,5-dihydro-1H-pyrazol-1-yl]ethan-1-one]  0.182%
53. Cc1noc(C)c1CN(C(=O)CCl)C1CC1 [7-B05, 2-chloro-N-cyclopropyl-N-[(3,5-dimethyl-1,2-oxazol-4-yl)methyl]acetamide]  0.0855%
